How the values were obtained:
[1] = Pd(0) Larock indole macrocyclisation (aryl C-Br + TES-alkyne, ArNHAc; forms Trp C3a-C3 and N1-C2 bonds); Pd(OAc)2 0.5 eq, tBu3P·HBF4 1.0 eq, DIPEA 10 eq; conditions: the molecule shown is the open-chain precursor; 16-membered ring; toluene; 20.0 mM; 110.0 °C; 12.0 h; 5 steps
[2] = Pd(0) Larock indole macrocyclisation (aryl C-Br + TES-alkyne); Pd(OAc)2 0.5 eq, tBu3P·HBF4 1.0 eq, DIPEA 10 eq for 54; 32 by previously reported procedure; conditions: the molecule shown is the open-chain precursor, 110.0 °C

SMILES | ring closure, yield over several steps [1] [%] | also measured
CC[Si](C#CC[C@H](NC(=O)[C@@H]1CCCN1C(=O)[C@H](Cc1ccc(F)c(-c2ccc(NC(C)=O)c(Br)c2)c1)NC(=O)OC(C)(C)C)C(=O)OC)(CC)CC [Boc-Phe(4-F, 3-(4-NHAc-3-Br-phenyl))-Pro-Pra(TES)-OMe] | 31 | –
CC[Si](C#CC[C@H](NC(=O)OC(C)(C)C)C(=O)N[C@@H](C)C(=O)N[C@@H](CC(C)C)C(=O)N[C@@H](Cc1ccc(OC)c(-c2ccc(Br)c(N)c2)c1)C(=O)OC)(CC)CC [Boc-Pra(TES)-Ala-Leu-Tyr(OMe, 3-(3-NH2-4-Br-phenyl))-OMe] | – | ring closure, isolated yield ([2]; 20-membered ring;, 12.0 h): 79%
CC[Si](C#CC[C@H](NC(=O)[C@@H]1CCCN1C(=O)[C@H](Cc1ccc(OC)c(-c2ccc(NC(C)=O)c(Br)c2)c1)NC(=O)OC(C)(C)C)C(=O)OC)(CC)CC [Boc-Tyr(OMe, 3-(4-NHAc-3-Br-phenyl))-Pro-Pra(TES)-OMe] | – | ring closure, isolated yield ([2]; 16-membered ring;): 45%
CC[Si](C#CC[C@H](NC(=O)[C@@H]1CCCN1C(=O)[C@H](Cc1cccc(-c2ccc(NC(C)=O)c(Br)c2)c1)N1C(=O)c2ccccc2C1=O)C(=O)OC)(CC)CC [Phth-Phe(3-(4-NHAc-3-Br-phenyl))-Pro-Pra(TES)-OMe] | 30 | –
CC[Si](C#CC[C@H](NC(=O)[C@@H]1CCCN1C(=O)[C@H](Cc1ccc(C)c(-c2ccc(NC(C)=O)c(Br)c2)c1)N1C(=O)c2ccccc2C1=O)C(=O)OC)(CC)CC [Phth-Phe(4-Me, 3-(4-NHAc-3-Br-phenyl))-Pro-Pra(TES)-OMe] | 39 | –
CC[Si](C#CC[C@H](NC(=O)[C@@H]1CCCN1C(=O)[C@H](Cc1cc(F)cc(-c2ccc(NC(C)=O)c(Br)c2)c1)N1C(=O)c2ccccc2C1=O)C(=O)OC)(CC)CC [Phth-Phe(5-F, 3-(4-NHAc-3-Br-phenyl))-Pro-Pra(TES)-OMe] | 23 | –
